From patent publication US8969363B2, “Heterocyclic compounds and uses thereof” (Infinity Pharmaceuticals, Inc., priority 2011, dated 2015) come the findings set out here.

One assay deals with Balb/c splenic B cells. The assay is described as follows: B cell activation and proliferation assay (Alamar Blue). The conditions noted are these: Mus musculus, 'Less than 100 nM'. The class given is cell-based. As for the experimental part:
The ability of one or more subject compounds to inhibit B cell activation and proliferation is determined according to standard procedures known in the art. For example, an in vitro cellular proliferation assay is established that measures the metabolic activity of live cells. The assay is performed in a 96 well microtiter plate using Alamar Blue reduction. Balb/c splenic B cells are purified over a Ficoll-Paque™ PLUS gradient followed by magnetic cell separation using a MACS B cell Isolation Kit (Miletenyi). Cells are plated in 90 μl at 50,000 cells/well in B Cell Media (RPMI+10% FBS+Penn/Strep+50 μM bME+5 mM HEPES). A compound provided herein is diluted in B Cell Media and added in a 10 μl volume. Plates are incubated for 30 min at 37° C. and 5% CO2 (0.2% DMSO final concentration). A 50 μl B cell stimulation cocktail is then added containing either 10 μg/ml LPS or 5 μg/ml F(ab′)2 Donkey anti-mouse […] plus 2 ng/ml recombinant mouse IL4 in B Cell Media. Plates are incubated for 72 hours at 37° C. and 5% CO2. A volume of 15 μL of Alamar Blue reagent is added to each well and plates are incubated for 5 hours at 37° C. and 5% CO2. Alamar Blue fluoresce is read at 560Ex/590Em, and IC50 or EC50 values are calculated using GraphPad Prism 5.

The target of another assay is PI3Kβ. The assay is described as follows: PI3 Kinase HTRF assay, PI3Kβ. Format: biochemical, human. The conditions noted are these: 10 μM PIP2, 10 μM ATP, read-out: PI3K β IC50. From the text:
A PI3-Kinase HTRF® assay kit (cat No. 33-016) purchased from Millipore Corporation was used to screen compounds provided herein. This assay used specific, high affinity binding of the GRP1 pleckstrin homology (PH) domain to PIP3, the product of a Class 1A or 1B PI3 Kinase acting on its physiological substrate PIP2. During the detection phase of the assay, a complex was generated between the GST-tagged PH domain and biotinylated short chain PIP3. The biotinylated PIP3 and the GST-tagged PH domain recruited fluorophores (Streptavidin-Allophycocyanin and Europium-labeled anti-GST respectively) to form the fluorescence resonance energy transfer (FRET) architecture, generating a stable time-resolved FRET signal. The FRET complex was disrupted in a competitive manner by non-biotinylated PIP3, a product formed in the PI3 Kinase assay.
PI3 Kinase α, β, γ and δ activity was assayed using the PI3 Kinase HTRF® assay kit (catalogue No. 33-016) purchased from Millipore Corporation. […] Purified recombinant PI3K enzyme was used to catalyze the phosphorylation of phosphatidylinositol 4,5-bisphosphate (PIP2 at 10 μM) to phosphatidylinositol 3,4,5-trisphosphate (PIP3) in the presence of 10 μM ATP. The assay was carried out in 384-well format and detected using a Perkin Elmer EnVision Xcite Multilabel Reader. Emission ratios were converted into percent inhibitions and imported into GraphPad Prism software. […] IC50 values were determined using a nonlinear regression model available in GraphPad Prism 5. […]
For orientation: Time-resolved FRET reads energy transfer from a long-lived donor to a nearby acceptor.

Setting [1] is: 'Greater than 10 μM' and 'Greater than 1 μM to 10 μM'.

The structures appear in SMILES notation. Like-named read-outs stand apart in the source and are kept apart here.

Sequence of PI3Kβ (Q8BTI9 whole entry, the tested form may be a part): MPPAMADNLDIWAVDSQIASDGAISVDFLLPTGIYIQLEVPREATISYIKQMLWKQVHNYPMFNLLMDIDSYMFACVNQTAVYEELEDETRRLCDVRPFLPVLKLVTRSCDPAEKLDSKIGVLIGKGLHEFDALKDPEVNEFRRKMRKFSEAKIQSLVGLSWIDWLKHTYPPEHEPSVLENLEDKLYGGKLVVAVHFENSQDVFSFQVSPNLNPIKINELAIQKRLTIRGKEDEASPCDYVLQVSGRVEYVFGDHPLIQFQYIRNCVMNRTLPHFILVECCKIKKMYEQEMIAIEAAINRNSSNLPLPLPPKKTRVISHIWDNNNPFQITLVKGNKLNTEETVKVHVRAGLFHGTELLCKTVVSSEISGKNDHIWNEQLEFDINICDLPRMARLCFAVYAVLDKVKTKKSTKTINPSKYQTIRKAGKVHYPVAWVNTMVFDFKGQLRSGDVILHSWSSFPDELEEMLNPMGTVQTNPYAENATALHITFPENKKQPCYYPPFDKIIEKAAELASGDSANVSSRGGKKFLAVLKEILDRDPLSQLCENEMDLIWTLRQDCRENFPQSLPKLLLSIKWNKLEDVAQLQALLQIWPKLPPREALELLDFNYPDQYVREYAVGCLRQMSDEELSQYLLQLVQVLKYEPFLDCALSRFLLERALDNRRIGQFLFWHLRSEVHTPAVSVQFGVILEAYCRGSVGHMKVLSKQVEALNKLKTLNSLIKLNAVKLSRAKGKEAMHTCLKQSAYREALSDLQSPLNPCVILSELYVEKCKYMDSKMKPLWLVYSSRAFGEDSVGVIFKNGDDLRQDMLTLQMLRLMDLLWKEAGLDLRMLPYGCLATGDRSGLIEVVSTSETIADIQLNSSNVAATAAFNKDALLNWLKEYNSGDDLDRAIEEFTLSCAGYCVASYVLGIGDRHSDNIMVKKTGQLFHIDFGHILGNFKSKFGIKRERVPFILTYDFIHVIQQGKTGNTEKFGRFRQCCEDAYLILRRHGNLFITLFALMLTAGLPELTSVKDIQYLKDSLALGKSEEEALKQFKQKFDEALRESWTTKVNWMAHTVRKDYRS

Broadly, the EC50 is the concentration that produces a half-maximal response. The low end stands for a more potent agent, the high end for a less potent agent. `C[C@H](Nc1ncnc2cccnc12)c1cc2ccc(F)c(Cl)c2c(=O)n1-c1ccccc1` [Compound I-16] showed an EC50 in the assay on Balb/c splenic B cells below 0.1 µM.

In the case of `C[C@H](Nc1ncnc2cccnc12)c1cc2cccc(Cl)c2c(=O)n1-c1cccc(F)c1` [Compound I-20], the EC50 in the assay with Balb/c splenic B cells is below 0.1 µM. The term IC50 denotes the concentration that gives 50% inhibition. Turning to `C[C@H](Nc1ncnc2cccnc12)c1cc2cccc(Cl)c2c(=O)n1C1CC1` [Compound I-23], the concentration for a half-maximal effect (EC50) in the assay with Balb/c splenic B cells was below 0.1 µM. Moreover, the concentration for half-maximal inhibition (IC50) on PI3Kβ ('Less than 100 nM') was below 0.1 µM.

Regarding `C[C@H](Nc1ncnc2cccnc12)c1cc2cccc(Cl)c2c(=O)n1CCN1CCCC1` [Compound I-33], the 50% effective concentration (EC50) with Balb/c splenic B cells was below 0.1 µM. `C[C@H](Nc1nc(Cl)nc2cccnc12)c1cc2cccc(-c3cnn(C)c3)c2c(=O)n1-c1ccccc1` [Compound I-35]: the 50% inhibitory concentration (IC50) at PI3Kβ (setting [1]) is above 10 µM.

For the molecule `C[C@H](Nc1nc(Cl)nc2cccnc12)c1cc2cccc(-c3cnn(C)c3)c2c(=O)n1-c1cccc(F)c1` [Compound I-37], at PI3Kβ (setting [1]), the concentration for half-maximal inhibition (IC50) is above 10 µM. The same measure, in the same setting: in the case of `C[C@H](Nc1nc(Cl)nc2cccnc12)c1cc2cccc(-c3cnn(C)c3)c2c(=O)n1C1CC1` [Compound I-39] it was above 10 µM. The molecule `C[C@H](Nc1nc(N)nc2cccnc12)c1cc2cccc(-c3cnn(C)c3)c2c(=O)n1C1CC1` [Compound I-40] had a 50% effective concentration (EC50) in the assay with Balb/c splenic B cells below 0.1 µM. Moreover, the 50% inhibitory concentration (IC50) on PI3Kβ (setting [1]) was 1 to 10 µM. Regarding `Cc1ncc(-c2cccc3cc([C@H](C)Nc4ncnc5cccnc45)n(-c4ccccc4)c(=O)c23)cn1` [Compound I-41], in the assay on Balb/c splenic B cells, the EC50 was below 0.1 µM. Moreover, on PI3Kβ (setting [1]), the half-maximal inhibitory concentration (IC50) is above 10 µM.

For the molecule `COc1ncc(-c2cccc3cc([C@H](C)Nc4ncnc5cccnc45)n(-c4ccccc4)c(=O)c23)cn1` [Compound I-42], the concentration giving a half-maximal response (EC50) in the assay on Balb/c splenic B cells was below 0.1 µM. The half-inhibitory concentration (IC50) at PI3Kβ (setting [1]) is above 10 µM.

On to `COc1cncc(-c2cccc3cc([C@H](C)Nc4ncnc5cccnc45)n(-c4ccccc4)c(=O)c23)c1` [Compound I-45], for which, at PI3Kβ (setting [1]), the concentration for half-maximal inhibition (IC50) is above 10 µM. The molecule `COc1ncc(-c2cccc3cc([C@H](C)Nc4nc(N)nc5cccnc45)n(-c4ccccc4)c(=O)c23)cn1` [Compound I-57] came in with an EC50 in the assay with Balb/c splenic B cells below 0.1 µM. Moreover, the 50% inhibitory concentration (IC50) at PI3Kβ (setting [1]) was above 10 µM. Taken in the same sequence, the figures for `COc1cncc(-c2cccc3cc([C@H](C)Nc4nc(N)nc5cccnc45)n(-c4ccccc4)c(=O)c23)c1` [Compound I-58] were below 0.1 µM and 1 to 10 µM. Taken in the same sequence, the figures for `Cc1ncc(-c2cccc3cc([C@H](C)Nc4nc(N)nc5cccnc45)n(-c4ccccc4)c(=O)c23)cn1` [Compound I-59] were below 0.1 µM and above 10 µM. In the case of `C[C@H](Nc1ncnc2cccnc12)c1cc2cccc(C(=O)O)c2c(=O)n1-c1ccccc1` [Compound I-62], at PI3Kβ (setting [1]), the 50% inhibitory concentration (IC50) was above 10 µM. Take `C[C@H](Nc1ncnc2cccnc12)c1cc2cccc(-c3cnc(N)nc3)c2c(=O)n1-c1ccccc1` [Compound I-63]: in the assay with Balb/c splenic B cells, the 50% effective concentration (EC50) is below 0.1 µM. Besides, the 50% inhibitory concentration (IC50) at PI3Kβ (setting [1]) lay in the range of 1 to 10 µM. Consider `Cc1ccnc2cc(C(C)Nc3ncnc4cccnc34)n(-c3ccccc3)c(=O)c12` (stereo not shown) [Compound I-65], for which the half-maximal inhibitory concentration (IC50) at PI3Kβ (setting [1]) was in the range of 1 to 10 µM. The same measure, in the same setting: in the case of `COc1nc(N[C@@H](C)c2cc3cccc(Cl)c3c(=O)n2-c2ccccc2)c2ncccc2n1` [Compound I-71] it was above 10 µM. On the same count and under the same terms, in the case of `COc1ncc(-c2cccc3cc([C@H](C)Nc4nc(OC)nc5cccnc45)n(-c4ccccc4)c(=O)c23)cn1` [Compound I-72] it was above 10 µM. Turning to `Cc1cncc(-c2cccc3cc([C@H](C)Nc4nc(N)nc5cccnc45)n(-c4ccccc4)c(=O)c23)c1` [Compound I-75], the concentration giving a half-maximal response (EC50) in the assay with Balb/c splenic B cells was below 0.1 µM. The IC50 on PI3Kβ (setting [1]) lay in the range of 1 to 10 µM.

`Cc1cc(-c2cccc3cc([C@H](C)Nc4ncnc5cccnc45)n(-c4ccccc4)c(=O)c23)ccn1` [Compound I-76] came in with an EC50 with Balb/c splenic B cells below 0.1 µM. Besides, on PI3Kβ (setting [1]), the half-inhibitory concentration (IC50) lay within 1 to 10 µM. Take `COc1ncc(-c2cccc3cc([C@H](C)Nc4nc(O)nc5cccnc45)n(-c4ccccc4)c(=O)c23)cn1` [Compound I-77]: the concentration for half-maximal inhibition (IC50) on PI3Kβ (setting [1]) is above 10 µM. Regarding `COc1ncc(-c2cccc3cc([C@H](C)Nc4nc(N)nc5cccnc45)n(-c4cccc(F)c4)c(=O)c23)cn1` [Compound I-78], in the assay with Balb/c splenic B cells, the EC50 was below 0.1 µM. Further, the half-inhibitory concentration (IC50) on PI3Kβ (setting [1]) is above 10 µM. Taken in the same sequence, the figures for `Cc1cc(-c2cccc3cc([C@H](C)Nc4nc(N)nc5cccnc45)n(-c4ccccc4)c(=O)c23)ccn1` [Compound I-81] were below 0.1 µM and 1 to 10 µM. The corresponding values for `C[C@H](Nc1nc(N)nc2cccnc12)c1cc2cccc(-c3cnc4ccccc4c3)c2c(=O)n1-c1ccccc1` [Compound I-82] are below 0.1 µM and 1 to 10 µM.

In the assay on Balb/c splenic B cells, `C[C@H](Nc1nc(N)nc2cccnc12)c1cc2cccc(-c3cnc4[nH]ccc4c3)c2c(=O)n1-c1ccccc1` [Compound I-83] had an EC50 below 0.1 µM. `Cc1cccc2cc([C@H](C)Nc3nc(N)nc4cccnc34)n(-c3cccc(F)c3)c(=O)c12` [Compound I-85] gave a concentration giving a half-maximal response (EC50) in the assay on Balb/c splenic B cells below 0.1 µM. The concentration for half-maximal inhibition (IC50) on PI3Kβ (setting [1]) fell in the range of 1 to 10 µM. For the molecule `C[C@H](Nc1nc(N)nc2cccnc12)c1cc2cccc(Cl)c2c(=O)n1-c1ccccc1` [Compound I-92], the 50% inhibitory concentration (IC50) at PI3Kβ ('Less than 100 nM') is below 0.1 µM. Turning to `COc1ccc(CNc2nc(N[C@@H](C)c3cc4cccc(-c5cnc(OC)nc5)c4c(=O)n3-c3ccccc3)c3ncccc3n2)cc1` [Compound I-93], the IC50 on PI3Kβ (setting [1]) is 1 to 10 µM. For the molecule `Cc1ncc(-c2cccc3cc([C@H](C)Nc4nc(N)nc5cccnc45)n(-c4ccccc4)c(=O)c23)s1` [Compound I-94], on PI3Kβ (setting [1]), the half-inhibitory concentration (IC50) lay within 1 to 10 µM. `C[C@H](Nc1cc(Cl)nn2ccnc12)c1cc2cccc(-c3cnn(C)c3)c2c(=O)n1-c1cccc(F)c1` [II-16]: the IC50 on PI3Kβ (setting [1]) is above 10 µM. Still for that read-out and setting: next, `C[C@H](Nc1ccnc2ccnn12)c1cc2scc(-c3cnn(C)c3)c2c(=O)n1-c1ccccc1` [II-21]: above 10 µM. Still for that read-out and setting: next, `C[C@H](Nc1ccnn2ccnc12)c1cc2scc(-c3cnn(C)c3)c2c(=O)n1-c1ccccc1` [II-23]: above 10 µM; `COc1ncc(-c2cccc3cc([C@H](C)Nc4ccnc5ccnn45)n(-c4ccccc4)c(=O)c23)cn1` [II-47]: above 10 µM. For the molecule `C[C@H](Nc1ncnc2ccnn12)c1cc2cccc(C(F)(F)F)c2c(=O)n1-c1ccccc1` [III-21], on PI3Kβ (setting [1]), the half-maximal inhibitory concentration (IC50) lay within 1 to 10 µM. Still for that read-out and setting: next, `C[C@H](Nc1nc(Cl)nc2scnc12)c1cc2cccc(C(F)(F)F)c2c(=O)n1-c1ccccc1` [III-24]: 1 to 10 µM; `C[C@H](Nc1nc(N)ncc1C(F)(F)F)c1cc2cccc(C(F)(F)F)c2c(=O)n1-c1ccccc1` [III-32]: 1 to 10 µM. Still for that read-out and setting: in the case of `C[C@H](Nc1nc(O)nc2cccnc12)c1cc2cccc(C(F)(F)F)c2c(=O)n1-c1cccc(F)c1` [III-47] it was above 10 µM; in that of `C[C@H](Nc1nc(O)nc2[nH]cnc12)c1cc2cccc(C(F)(F)F)c2c(=O)n1-c1cccc(F)c1` [III-48], above 10 µM. As for `C[C@H](Nc1nccc2nccn12)c1cc2cccc(Cl)c2c(=O)n1-c1ccccc1` [IV-4], the IC50 on PI3Kβ (setting [1]) was above 10 µM. Turning to `C[C@H](Nc1ncnc2cnccc12)c1cc2cccc(Cl)c2c(=O)n1-c1ccccc1` [IV-5], at PI3Kβ (setting [1]), the IC50 was above 10 µM. The same measure, in the same setting: next, `C[C@H](Nc1ccn2nccc2n1)c1cc2cccc(Cl)c2c(=O)n1-c1ccccc1` [IV-6]: above 10 µM; `C[C@H](NCc1cccnc1N)c1cc2cccc(Cl)c2c(=O)n1-c1ccccc1` [IV-8]: above 10 µM. On to `C[C@H](Nc1ncc(C(F)(F)F)c(N)n1)c1cc2cccc(Cl)c2c(CCN2CCOCC2)n1` [IV-10], for which the IC50 on PI3Kβ (setting [1]) is above 10 µM. With `C[C@H](Nc1cc(Cl)ncc1C(N)=O)c1cc2cccc(Cl)c2c(=O)n1-c1ccccc1` [IV-21], the IC50 at PI3Kβ (setting [1]) was above 10 µM. `C[C@H](Nc1cc(Cl)ncc1C#N)c1cc2cccc(Cl)c2c(=O)n1-c1ccccc1` [IV-23]: on PI3Kβ (setting [1]), the IC50 was above 10 µM. On to `C[C@H](Nc1cc(N)ncc1C(N)=O)c1cc2cccc(Cl)c2c(=O)n1-c1ccccc1` [IV-24], for which the IC50 on PI3Kβ ('Less than 100 nM') was below 0.1 µM. `CCOC(=O)c1cnc(N[C@@H](C)c2cc3cccc(-c4ccnc(OC)c4)c3c(=O)n2-c2ccccc2)nc1N` [IV-25]: on PI3Kβ (setting [1]), the half-inhibitory concentration (IC50) is above 10 µM. For the molecule `C[C@@H](c1cc2cccc(Cl)c2c(=O)n1-c1ccccc1)n1c(=O)[nH]c2cnc(N)nc21` [IV-26], the IC50 at PI3Kβ (setting [1]) was above 10 µM. Same read-out and setting: next, `C[C@H](Nc1nc(Cl)ns1)c1cc2cccc(Cl)c2c(=O)n1-c1ccccc1` [IV-27]: above 10 µM.
